Data: ChEMBL document CHEMBL3046005, “New Insecticidal 4-Acetoxy-2-alkenylquinolines” (1996)

Assays:
Type in all cases: functional
[1] = test system: Bombyx mori; assay: Insecticidal activity against Bombyx mori larvae assessed as mortality at 40 ug administered topically measured after 48 hr
[2] = test system: Bombyx mori; assay: Insecticidal activity against Bombyx mori larvae assessed as mortality at 10 ug administered topically measured after 48 hr
[3] = test system: Bombyx mori; assay: Insecticidal activity against Bombyx mori larvae assessed as mortality at 0.63 ug administered topically measured after 48 hr
[4] = test system: Bombyx mori; assay: Insecticidal activity against Bombyx mori larvae assessed as mortality at 2.5 ug administered topically measured after 48 hr
[5] = test system: Laodelphax striatellus; assay: Insecticidal activity against Laodelphax striatella (small brown planthopper) larvae assessed as mortality at 500 ppm by leaf spray method
[6] = test system: Laodelphax striatellus; assay: Insecticidal activity against Laodelphax striatella (small brown planthopper) larvae assessed as mortality at 250 ppm by leaf spray method
[7] = test system: Plutella xylostella; assay: Insecticidal activity against Plutella xylostella (diamondback moth) larvae assessed as mortality at 250 ppm by leaf spray method
[8] = test system: Tetranychus urticae; assay: Insecticidal activity against Tetranychus urticae (two-spotted spider mite) eggs assessed as mortality at 1000 ppm by leaf spray method
[9] = test system: Tetranychus urticae; assay: Insecticidal activity against Tetranychus urticae (two-spotted spider mite) eggs assessed as mortality at 500 ppm by leaf spray method
[10] = test system: Plutella xylostella; assay: Insecticidal activity against Plutella xylostella (diamondback moth) larvae assessed as mortality at 500 ppm by leaf spray method
[11] = test system: Tetranychus urticae; assay: Insecticidal activity against Tetranychus urticae (two-spotted spider mite) eggs assessed as mortality at 250 ppm by leaf spray method
[12] = test system: Laodelphax striatellus; assay: Insecticidal activity against Laodelphax striatella (small brown planthopper) larvae assessed as mortality at 1000 ppm by leaf spray method
[13] = test system: Plutella xylostella; assay: Insecticidal activity against Plutella xylostella (diamondback moth) larvae assessed as mortality at 1000 ppm by leaf spray method

Row | SMILES | Activity [1] [%] | Activity [2] [%] | Activity [3] [%] | Activity [4] [%] | further results
1 | CCCCCC/C=C/Cc1nc2ccccc2c(OC(C)=O)c1C | 100 | 100 | 15 | 100 | –
2 | CCCCCCC/C=C\c1nc2ccccc2c(O)c1C | 70 | 20 | – | 0 | –
3 | CCCCCCC/C=C/c1nc2ccccc2c(O)c1C | 0 | 0 | – | 0 | –
4 | CCCCC/C=C/C=C/c1nc2ccccc2c(O)c1C | 0 | 0 | – | 0 | –
5 | CCCCC/C=C/C=C/c1nc2ccccc2c(OC(C)=O)c1C | 100 | 0 | – | 0 | –
6 | CCCCCCC/C=C/c1nc2ccccc2c(OC(C)=O)c1C | 100 | 100 | 0 | 100 | –
7 | CCCCCC/C=C/C(O)c1nc2ccccc2c(OC(C)=O)c1C (configuration not stated) | 85 | 10 | – | 0 | –
8 | CCCCCCC/C=C\c1nc2ccccc2c(OC(C)=O)c1C | 100 | 100 | 65 | 100 | Activity [5]: 94%; Activity [6]: 76%; Activity [7]: 100%; Activity [8]: 100%; Activity [9]: 100%; Activity [10]: 100%; Activity [11]: 68.2%; Activity [12]: 100%; Activity [13]: 100%
9 | CCCCCC/C=C/Cc1[nH]c2ccccc2c(=O)c1C | 20 | 0 | – | 0 | –
10 | CCCCCC/C=C/C(O)c1nc2ccccc2c(O)c1C (configuration not stated) | 5 | 0 | – | 0 | –
